Measurements from patent publication US20250257383A1, “MATERIAL DETECTION METHOD USING AMINOACYLASE” (JOSHO GAKUEN EDUCATIONAL FOUNDATION, priority 2021, published 2025).

Legend:
[1] = test system: amidohydrolase 4ewt (amino acid sequence of SEQ ID NO: 1, SACOL0085); test: Enzymatic detection of hippuric acid or methylhippuric acid by hydrolysis with amidohydrolase 4ewt and glycine oxidase/Trinder absorbance measurement (Example); type: biochemical, Staphylococcus aureus COL; details: amidohydrolase 4ewt 30 units/mL; specimens 5, 10, 20 mM in saline; 37° C.; Tris buffer pH 8.5; absorbance 545 nm; FIG. 3
Procedure: A first reagent R1 was prepared which contained 30 units/mL of amidohydrolase 4ewt, 7.5 units/mL of peroxidase, 4.5 mM of N-ethyl-N-(2-hydroxy-3-sulfopropyl)-3-methoxyaniline (TOOS), and 50 mM of Tris buffer (pH 8.5), and a second reagent R2 was prepared which contained 5 units/mL of glycine oxidase, 1.2 mM of 4-aminoantipyrine, and 100 mM of Tris buffer (pH 8.5).
Specimen Groups 1 to 4 and Specimen 0 were prepared as measurement samples, i.e., examination specimens.
Each of the examination specimens was diluted to five times by means of an automatic analyzer to prepare a diluted specimen solution. A volume of 60 μL of the first reagent R1 was added and mixed with 2 μL of the diluted specimen solution, and the reaction was allowed to proceed well at 37° C. After that, 20 μL of the second reagent R2 was further added and mixed with the reaction mixture, and the reaction was allowed to proceed well at 37° C. The absorbance of the resulting specimen solution was measured using an automatic analyzer, manufactured by JEOL Ltd. under the trade name JCA-BM 6050, at a primary wavelength of 545 nm and a secondary wavelength of 805 nm. The concentration of hippuric acid or methylhippuric acid in each examination specimen was calculated from the measured absorbance and plotted on a graph.
In FIG. 3, the abscissa represents known concentrations (unit: mM) of hippuric acid or methylhippuric acid in the examination specimens and the ordinate represents measured concentrations (unit: mM) obtained by the automatic analyzer. In FIG. 3, the diamond symbols represent the specimens of Specimen Group 1, namely the examination specimens containing hippuric acid, the square symbols represent the specimens of Specimen Group 2, namely the examination specimens containing 2-methylhippuric acid, the triangle symbols represent the specimens of Specimen Group 3, namely the examination specimens containing 3-methylhippuric acid, and the x symbols represent the specimens of Specimen Group 4, namely the examination specimens containing 4-methylhippuric acid. The examination specimen for which the known concentration is 0 mM is Specimen 0, which is represented by using all of the symbols representing Specimen Groups 1 to 4 since, as previously stated, Specimen 0 was used as a negative control in measurement for the Specimen Groups 1 to 4.
The amidohydrolase 4ewt used in Example was produced using a gene chemically synthesized by converting the amino acid sequence of SEQ ID NO: 1 to a base sequence. […]

aminoacylase PH1043 = test: Same detection method using aminoacylase PH1043 (Comparative Example 1); type: biochemical, Pyrococcus horikoshii; details: aminoacylase PH1043 instead of amidohydrolase; specimens 5, 10, 20 mM in saline; 37° C.; FIG. 4
Procedure: (§1) The absorbance of each specimen was measured in the same manner as in Example, except for using hitherto known aminoacylase PH1043 instead of the amidohydrolase used in Example. The concentration of hippuric acid or methylhippuric acid in each examination specimen was calculated from the measured absorbance and plotted on a graph. The abscissa, ordinate, and symbols in FIG. 4 are the same as those in FIG. 3.
The aminoacylase PH1043 used in Comparative Example 1 is one produced by Nipro Corporation. The aminoacylase PH1043 will not be described in detail as it is a hitherto known enzyme described, for example, in the following literatures: Imai Satsuki, Nagoshi Kentaro, Shinki Shota, Baba Toshiaki, Nishiya Yoshiaki, “Functional Modification of Pyrococcus horikoshii-Derived Hippurate Hydrolase”, The Society for Biotechnology, Japan (2018) (Reference Literature 7); Imai Satsuki, Nagoshi Kentaro, Shinki Shota, Baba Toshiaki, Nishiya Yoshiaki, “Development of Method and Enzyme for Enzymatic Assay of Hippuric Acid”, The Society of Analytical Bio-Science (2019) (Reference Literature 8); Imai Satsuki, Nagoshi Kentaro, Shinki Shota, Baba Toshiaki, Nishiya Yoshiaki, “Functional Improvement of Hippurate Hydrolase”, Japan Society for Bioscience, Biotechnology and Agrochemistry (2019) (Reference Literature 9); Imai Satsuki, Nagoshi Kentaro, Shinki Shota, Baba Toshiaki, Nishiya Yoshiaki, “Functional Improvement of Hippurate Hydrolase toward Practical Use”, The Molecular Biology Society of Japan (2019) (Reference Literature 10); Imai Satsuki, Nagoshi Kentaro, Shinki Shota, Baba Toshiaki, Nishiya Yoshiaki, “Development of Enzymatic Assay Method for Determining Total Exposure to Toluene and Xylene (1)”, The Society of Analytical Bio-Science (2020) (Reference Literature 11); and Suginaka Muneyuki, Torii Gento, Imai Satsuki, Baba Toshiaki, Nishiya Yoshiaki, “Development of Enzymatic Assay Method for Determining Total Exposure to Toluene and Xylene (2)”, The Molecular Biology Society of Japan (2020) (Reference Literature 12). The contents of Reference Literatures 7 to 12 are incorporated herein by reference.

[2] = test system: hippurate hydrolase (EC 3.5.1.32); test: Same detection method using hippurate hydrolase (Comparative Example 2); type: biochemical; details: hippurate hydrolase instead of amidohydrolase; specimens 5, 10, 20 mM in saline; 37° C.; FIG. 5
Procedure: as §1, with “using a” for “using”, “hippurate hydrolase (EC 3.5.1.32, manufactured by Nipro Corporation)” for “aminoacylase PH1043”, “5” for “4”, “3 or 4.” for “3.”

Structure (SMILES) | agreement of measured concentration with known concentration in the specimen (hydrolysis by the enzyme) [1] | agreement of measured concentration with actual concentration in the specimen (hydrolysis by the enzyme) (aminoacylase PH1043) | agreement of measured concentration with actual concentration in the specimen (hydrolysis by the enzyme) [2]
O=C(O)CNC(=O)c1ccccc1 [hippuric acid, benzoylaminoacetic acid] | agree well with each other | agreed well with the actual concentrations | agreed well with the actual concentrations
Cc1cccc(C(=O)NCC(=O)O)c1 [3-methylhippuric acid] | agree well with each other | agreed well with the actual concentrations | agreed well with the actual concentrations
Cc1ccccc1C(=O)NCC(=O)O [2-methylhippuric acid, (2-methylbenzoylamino)acetic acid] | agree well with each other | not much different from the measured concentration obtained for the negative control | not much different from the measured concentration obtained for the negative control
Cc1ccc(C(=O)NCC(=O)O)cc1 [4-methylhippuric acid] | agree well with each other | agreed well with the actual concentrations | agreed well with the actual concentrations
